Measurements from patent US20260159520A1, “HETEROBIFUNCTIONAL COMPOUNDS AND METHODS OF TREATING DISEASE” (Halda Therapeutics OpCo, Inc., priority 2022, published 2026).
pKd: −log10 of the molar value.

Columns and labels:
androgen receptor = molecular target: T1, androgen receptor (Homo sapiens, UniProt P10275); assay: Binding affinity to androgen receptor ([3H]methyltrienolone radioligand, cell cytosol); conditions: Table 6
T1 construct: endogenous in cells; host or cells: unnamed cells (cytosol fraction)
T1 sequence (P10275 1-920): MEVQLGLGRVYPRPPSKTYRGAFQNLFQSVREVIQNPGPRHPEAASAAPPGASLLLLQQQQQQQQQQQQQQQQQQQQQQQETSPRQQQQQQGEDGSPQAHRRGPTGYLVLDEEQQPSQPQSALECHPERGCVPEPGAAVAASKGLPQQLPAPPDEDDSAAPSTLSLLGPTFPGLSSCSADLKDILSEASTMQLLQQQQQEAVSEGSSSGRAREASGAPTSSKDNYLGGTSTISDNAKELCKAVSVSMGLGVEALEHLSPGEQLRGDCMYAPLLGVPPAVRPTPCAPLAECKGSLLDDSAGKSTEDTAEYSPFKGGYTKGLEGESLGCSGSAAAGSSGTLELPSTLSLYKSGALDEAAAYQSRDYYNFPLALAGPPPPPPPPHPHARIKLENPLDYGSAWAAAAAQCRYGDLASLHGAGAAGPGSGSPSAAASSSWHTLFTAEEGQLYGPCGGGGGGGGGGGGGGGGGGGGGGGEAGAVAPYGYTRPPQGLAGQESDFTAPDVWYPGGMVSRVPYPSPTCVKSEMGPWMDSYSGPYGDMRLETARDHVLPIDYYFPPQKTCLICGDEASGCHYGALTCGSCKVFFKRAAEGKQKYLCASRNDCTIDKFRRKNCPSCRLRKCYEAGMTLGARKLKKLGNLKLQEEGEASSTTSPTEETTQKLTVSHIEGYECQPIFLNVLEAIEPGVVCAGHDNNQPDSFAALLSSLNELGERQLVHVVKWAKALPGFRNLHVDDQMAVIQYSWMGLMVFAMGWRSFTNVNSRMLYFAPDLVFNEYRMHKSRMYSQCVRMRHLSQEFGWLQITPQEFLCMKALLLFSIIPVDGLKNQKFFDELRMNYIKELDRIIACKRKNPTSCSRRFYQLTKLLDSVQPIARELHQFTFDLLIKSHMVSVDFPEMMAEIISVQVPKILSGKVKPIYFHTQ
Protocol: Fractions of cell cytosol ([…]) were incubated for 24 hr at 4° C. with 1 nM [^3H]methyltrienolone in the absence or presence of the test compound in a buffer containing 25 mM Hepes-Tris (pH 7.4), 1 mM EDTA, 10 mM Na2MoO4, 2 mM DTT, 5 μM triamcinolone acetonide, and 10% glycerol. Nonspecific binding was determined in the presence of 1 μM testosterone. Following incubation, the samples were filtered rapidly under vacuum through glass fiber filters (GF/B, Packard) presoaked with 0.3% PEI and rinsed several times with ice-cold 50 mM Tris-HCl using a 96-sample cell harvester (Unifilter, Packard). The filters were dried then counted for radioactivity in a scintillation counter (Topcount, Packard) using a scintillation cocktail (Microscint 0, Packard). The results are expressed as a percent inhibition of the control radioligand specific binding. The standard reference compound is testosterone, which is tested in each experiment at several concentrations to obtain a competition curve from which its IC50 is calculated.

[1] = tested on: T-Rex 293 cell line SC cells lacking increased expression of progesterone receptor isoform B protein; assay: Cellular growth inhibition, T-Rex 293 SC cells without doxycycline; assay type: cell-based; conditions: not exposed to doxycycline, 72 hours, CellTiter-Glo 2.0
Protocol: (§1) The following types of cells were prepared for this experiment: (i) a T-Rex 293 cell line having increased expression of progesterone receptor isoform B protein due to exposure to doxycycline and (ii) a T-Rex 293 cell line lacking increased expression of progesterone receptor isoform B protein. Ability of the test compounds to inhibit proliferation of the foregoing cell types was evaluated according to the procedures set forth below.
(§2) The doxycycline-inducible progesterone receptor isoform B protein expressing cell line was established using the following protocol: T-Rex 293 cells were purchased from Invitrogen (Cat #R71007) and transfected using Lipofectamine 2000 with the wild-type progesterone receptor B protein sequence cloned into the pcDNA4/TO vector. Transfected cells were selected using 400 μg/mL Zeocin (Invitrogen Cat #R25001). Following selection, single clones were raised and maintained in Dulbecco's Modified Eagle Medium (DMEM) supplemented with 10% w/w Tetracycline-free fetal bovine serum (FBS) and 250 μg/mL Zeocin. Clones were analyzed for expression of progesterone receptor isoform B protein in the presence and absence of 10 ng/mL doxycycline (Sigma Cat #D9891), and a single doxycycline-inducible clone (hereinafter “SC”) was selected for use in downstream assays.
(§3) The SC cells were seeded on poly-D-lysine coated, black clear-bottom 384-well plates at 2500/well, in 25 μL Phenol Red Free Dulbecco's Modified Eagle Medium (DMEM) supplemented with 10% w/w charcoal-dextran treated fetal bovine serum (FBS) and 1% w/w pen-strep, with or without 10 ng/mL doxycycline. Pen-Strep is a commercially available mixture of penicillin G and streptomycin, which is used in mammalian cell culture media to prevent bacterial contamination. Phenol Red Free Dulbecco's Modified Eagle Medium (DMEM) supplemented with 10% w/w charcoal-dextran treated fetal bovine serum (FBS) and 1% w/w pen-strep, with or without 10 ng/mL doxycycline is herein referred to as Treatment Medium. Following seeding of cells in the plates, the plates were spun at 300×g for 30 seconds, then equilibrated to room temperature for 30 minutes, and then deposited in a humidified tissue culture incubator maintained at 37° C. with 5% CO2.
(§4) At 24 hours after seeding of the cells, dilutions of test compound were prepared in DMSO and dissolved in Treatment Medium, to achieve a final DMSO concentration of 0.5% w/w, thereby providing the Test Compound Solution. A 25 μL aliquot of the Test Compound Solution was added to cells in the well plates. An equal volume of a solution containing DMSO and Treatment Medium was used as a negative control. Following treatment of cells with Test Compound Solution or said equal volume of a solution containing DMSO and Treatment Medium, the plates were spun at 300×g for 30 seconds, and then left in an incubator for 72 hours.
(§5) At the end of the treatment duration, cell viability was quantified with CellTiter-Glo 2.0 reagent (Promega Cat #G9243). For this purpose, plates were equilibrated to room temperature for 30 minutes, and then 25 μL of CellTiter-Glo 2.0 reagent was added to cells in the plate wells. Plates were then agitated on a shaker for two minutes at 500 rpm and subsequently incubated at room temperature for 10 minutes. Following incubation, the plates were spun at 3000×g for 30 seconds, then sealed with an optical adhesive cover, and luminescence readings were measured with an EnVision Plate Reader (Perkin Elmer).
(§6) Data was normalized using zero luminescence for baseline. A four-parameter non-linear regression curve fit was applied to dose-response data in GraphPad Prism data analysis software to determine the half-maximal growth inhibitory concentration (GI50) for each test compound.

[2] = tested on: T-Rex 293 cell line SC cells having increased expression of progesterone receptor isoform B protein; assay: Cellular growth inhibition, T-Rex 293 SC cells with doxycycline (increased progesterone receptor isoform B expression); assay type: cell-based; conditions: with 10 ng/mL doxycycline (increased progesterone receptor isoform B), 72 hours, CellTiter-Glo 2.0
Protocol: as §1, §2, §3, §4, §5, §6

Row | SMILES | pKd (androgen receptor) | GI50 [1] [nM] | GI50 [2] [nM]
1 | CCc1cnn2c(NCc3ccc(OCCOCCOCCOCCOCCN(C)c4ncc(C(=O)N[C@H]5C(C)(C)[C@H](Oc6ccc(C#N)c(Cl)c6)C5(C)C)cn4)nc3)cc(N3CCCC[C@H]3CCO)nc12 [Compound I-3] | – | < 500 | < 500
2 | CCc1cnn2c(NCc3ccc(OCCN4CCN(CC5CCN(c6ncc(C(=O)N[C@H]7C(C)(C)[C@H](Oc8ccc(C#N)c(Cl)c8)C7(C)C)cn6)CC5)CC4)nc3)cc(N3CCCC[C@H]3CCO)nc12 [Compound I-41] | – | < 500 | < 500
3 | CCc1cnn2c(NCc3ccc(OC4CCN(CC5CCN(c6ncc(C(=O)N[C@H]7C(C)(C)[C@H](Oc8ccc(C#N)c(Cl)c8)C7(C)C)cn6)CC5)CC4)nc3)cc(N3CCCC[C@H]3CCO)nc12 [Compound I-46] | – | < 500 | < 500
4 | CCc1cnn2c(NCc3ccc(OCCN4CCN(CC5CCN(c6ncc(C(=O)N[C@H]7C(C)(C)[C@H](Oc8ccc(C#N)c(Cl)c8)C7(C)C)cn6)CC5)CC4)nc3)cc(-c3ccccc3)nc12 [Compound I-47, N-((1r,3r)-3-(3-chloro-4-cyanophenoxy)-2,2,4,4-tetramethylcyclobutyl)-2-(4-((4-(2-((5-(((3-ethyl-5-phenylpyrazolo[1,5-a]pyrimidin-7-yl)amino)methyl)pyridin-2-yl)oxy)ethyl)piperazin-1-yl)methyl)piperidin-1-yl)pyrimidine-5-carboxamide] | > 7.30 | – | –
5 | CCc1cnn2c(NCc3ccc(OCC4CCN(CC5CCN(c6ncc(C(=O)N[C@H]7C(C)(C)[C@H](Oc8ccc(C#N)c(Cl)c8)C7(C)C)cn6)CC5)CC4)nc3)cc(N3CCCC[C@H]3CCO)nc12 [Compound I-51] | – | < 500 | < 500
6 | CC(C)n1cc(-c2ccnc3[nH]c(C4CCN(CCN5CCN(CC6CCN(c7ncc(C(=O)NC8C(C)(C)C(Oc9ccc(C#N)c(Cl)c9)C8(C)C)cn7)CC6)CC5)CC4)cc23)ccc1=O (centres unmarked) [Compound I-74, N-[3-(3-chloro-4-cyano-phenoxy)-2,2,4,4-tetramethyl-cyclobutyl]-2-[4-[[4-[2-[4-[4-(1-isopropyl-6-oxo-3-pyridyl)-1H-pyrrolo [2,3-b]pyridin-2-yl]-1-piperidyl]ethyl]piperazin-1-yl]methyl]-1-piperidyl]pyrimidine-5-carboxamide] | – | < 500 | < 500
7 | CCc1cnn2c(NCc3ccc(N4CCC(N5CCN(C6CN(c7ncc(C(=O)N[C@H]8C(C)(C)[C@H](Oc9ccc(C#N)c(Cl)c9)C8(C)C)cn7)C6)CC5)CC4)nc3)cc(N3CCCC[C@H]3CCO)nc12 [Compound I-86] | – | < 500 | < 500
8 | CC1(C)[C@H](NC(=O)c2cnc(N3CCC(CN4CCN(CCN5C/C=C/CCOc6cccc(c6)-c6ccnc(n6)Nc6cccc(c6)C5)CC4)CC3)nc2)C(C)(C)[C@H]1Oc1ccc(C#N)c(Cl)c1 [Compound I-94] | – | > 3000 | 500 to 1500
9 | Cc1ncc(-c2nc(Nc3ccc(C(=O)N4CC[C@H](N(C)CCOC5CCN(c6ncc(C(=O)N[C@H]7C(C)(C)[C@H](Oc8ccc(C#N)c(Cl)c8)C7(C)C)cn6)CC5)C4)cc3)ncc2F)n1C(C)C [Compound I-95, N-[3-(3-chloro-4-cyano-phenoxy)-2,2,4,4-tetramethyl-cyclobutyl]-2-[4-[2-[[(3S)-1-[4-[[5-fluoro-4-(3-isopropyl-2-methyl-imidazol-4-yl)pyrimidin-2-yl]amino]benzoyl]pyrrolidin-3-yl]-methyl-amino]ethoxy]-1-piperidyl]pyrimidine-5-carboxamide] | – | < 500 | < 500

Now from value to compound, other results behind:

Row | pKd (androgen receptor) | SMILES | GI50 [1] [nM] | GI50 [2] [nM]
10 | > 7.30 | CCc1cnn2c(NCc3ccc(OCCN(C)c4ncc(C(=O)N[C@H]5C(C)(C)[C@H](Oc6ccc(C#N)c(Cl)c6)C5(C)C)cn4)nc3)cc(N3CCCC[C@H]3CCO)nc12 [Compound I-1] | – | –
11 | > 7.30 | CCc1cnn2c(NCc3ccc(OCCOCCOCCOCCOCCOC4CCN(c5ncc(C(=O)N[C@H]6C(C)(C)[C@H](Oc7ccc(C#N)c(Cl)c7)C6(C)C)cn5)CC4)nc3)cc(N3CCCC[C@H]3CCO)nc12 [Compound I-9] | – | –
12 | > 7.30 | CCc1cnn2c(NCc3ccc(OCCCCOCCOC4CCN(c5ncc(C(=O)N[C@H]6C(C)(C)[C@H](Oc7ccc(C#N)c(Cl)c7)C6(C)C)cn5)CC4)nc3)cc(N3CCCC[C@H]3CCO)nc12 [Compound I-34] | – | –
13 | > 7.30 | CCc1cnn2c(NCc3ccc(OCCCCN4CCN(CC5CCN(c6ncc(C(=O)N[C@H]7C(C)(C)[C@H](Oc8ccc(C#N)c(Cl)c8)C7(C)C)cn6)CC5)CC4)nc3)cc(N3CCCC[C@H]3CCO)nc12 [Compound I-43] | – | –
14 | > 7.30 | CCc1cnn2c(NCc3ccc(OCCOCC4CCN(CC5CCN(c6ncc(C(=O)N[C@H]7C(C)(C)[C@H](Oc8ccc(C#N)c(Cl)c8)C7(C)C)cn6)CC5)CC4)nc3)cc(N3CCCC[C@H]3CCO)nc12 [Compound I-45] | – | –
15 | > 7.30 | CCc1cnn2c(NCc3ccc(OCCCN4CCN(C5CN(c6ncc(C(=O)N[C@H]7C(C)(C)[C@H](Oc8ccc(C#N)c(Cl)c8)C7(C)C)cn6)C5)CC4)nc3)cc(N3CCCC[C@H]3CCO)nc12 [Compound I-60] | – | –
16 | > 7.30 | CCc1cnn2c(NCc3ccc(OCCCN4CCC(C5CN(c6ncc(C(=O)N[C@H]7C(C)(C)[C@H](Oc8ccc(C#N)c(Cl)c8)C7(C)C)cn6)C5)CC4)nc3)cc(N3CCCC[C@H]3CCO)nc12 [Compound I-61] | – | –
17 | > 7.30 | CCc1cnn2c(NCc3ccc(N4CCC(CN5CCC6CN(c7ncc(C(=O)N[C@H]8C(C)(C)[C@H](Oc9ccc(C#N)c(Cl)c9)C8(C)C)cn7)CCC6C5)CC4)nc3)cc(N3CCCC[C@H]3CCO)nc12 (some centres unmarked) [Compound I-71] | – | –
18 | > 7.30 | CCc1cnn2c(NCc3ccc(N4CC(OCCN5CC6CN(c7ncc(C(=O)N[C@H]8C(C)(C)[C@H](Oc9ccc(C#N)c(Cl)c9)C8(C)C)cn7)CC6C5)C4)nc3)cc(N3CCCC[C@H]3CCO)nc12 (some centres unmarked) [Compound I-72] | – | –
